Patent publication US20240217967A1, “INDOLINE DERIVATIVES AS DDRS INHIBITORS” (CHIESI FARMACEUTICI S.P.A., priority 2021, published 2024)

Assays:
DDR1 [1] = target: T1, DDR1 (Homo sapiens, UniProt Q08345); test: DDR1 LanthaScreen Europium Kinase Binding assay; settings: binding affinity; IC50 converted in Ki using Cheng-Prusoff; read-out: Ki DDR1
Procedure: (§1) DDR1 and DDR2 binding assays were performed using Life Technologies LanthaScreen™ Europium Kinase Binding assay. The compounds were incubated with 5 nM DDR1 (Carna Biosciences) or 5 nM DDR2 (Life Technologies) for 1 hour at room temperature in white 384-well OptiPlate (PerkinElmer), containing 20 nM or 10 nM Kinase Tracer 178 respectively and 2 nM Europium labelled anti-GST antibody (Life Technologies) in assay buffer (50 mM HEPES pH 7.5, 10 mM MgCI2, 1 mM EGTA and 0.01% BRIJ35). The ratio of fluorescence emission 665 nm/615 nm after excitation at 340 nm was obtained using the Tecan Spark 20M plate reader. IC50 values were determined in GraphPad Prism 7.0 software, using 4 parameter model: log(inhibitor) vs. response. IC50 values were converted in Ki using the Cheng-Prusoff equation (Ki=IC50/(1+[Tracer]/Kd).

DDR2 = target: T2, DDR2 (Homo sapiens, UniProt Q16832); test: DDR2 LanthaScreen Europium Kinase Binding assay; settings: binding affinity; IC50 converted in Ki using Cheng-Prusoff; read-out: Ki DDR2
T2 sequence (Q16832 22-855): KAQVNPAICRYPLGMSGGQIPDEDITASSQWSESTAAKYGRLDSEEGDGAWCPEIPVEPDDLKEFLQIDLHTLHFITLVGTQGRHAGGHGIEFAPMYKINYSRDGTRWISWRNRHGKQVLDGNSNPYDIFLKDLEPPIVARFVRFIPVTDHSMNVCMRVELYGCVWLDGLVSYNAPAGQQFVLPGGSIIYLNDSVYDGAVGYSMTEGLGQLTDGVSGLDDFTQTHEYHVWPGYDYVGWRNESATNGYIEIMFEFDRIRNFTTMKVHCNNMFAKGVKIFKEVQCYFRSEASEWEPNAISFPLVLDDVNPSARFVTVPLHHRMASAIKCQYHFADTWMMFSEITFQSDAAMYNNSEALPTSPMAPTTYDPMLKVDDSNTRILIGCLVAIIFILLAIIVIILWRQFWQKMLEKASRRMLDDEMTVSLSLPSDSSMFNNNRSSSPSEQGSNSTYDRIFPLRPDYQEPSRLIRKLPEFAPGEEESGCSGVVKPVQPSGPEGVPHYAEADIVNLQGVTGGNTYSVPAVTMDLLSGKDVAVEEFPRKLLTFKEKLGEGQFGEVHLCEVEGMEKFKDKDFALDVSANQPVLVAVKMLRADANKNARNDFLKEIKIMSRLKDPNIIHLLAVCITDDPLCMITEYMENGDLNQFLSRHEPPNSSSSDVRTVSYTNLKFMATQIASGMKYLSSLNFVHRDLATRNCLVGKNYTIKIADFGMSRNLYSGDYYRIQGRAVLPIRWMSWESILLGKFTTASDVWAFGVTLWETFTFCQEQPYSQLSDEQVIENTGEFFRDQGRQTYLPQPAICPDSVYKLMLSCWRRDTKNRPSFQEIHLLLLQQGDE
Procedure: as §1

DDR1 [2] = target: T1, DDR1; test: DDR1 cell based assay (PathHunter U2OS DDR1, collagen II stimulation); settings: U2OS-DDR1 cells, bovine Type II Collagen stimulation
Procedure: The inhibition of DDR1 receptor activation by compounds was evaluated by PathHunter® U2OS DDR1 assay (Eurofins DiscoverX), according to the manufacturer's instructions. Briefly, U2OS-DDR1 cells were seeded in white 384-well plates at a density of 5000 cells/well and incubated for 2 hours at 37° C. and 5% CO2. Cells were then treated with compounds at different concentrations and incubated for 30 minutes, before stimulation with bovine Type II Collagen 20 μg/ml and incubation overnight at 37° C. and 5% CO2. PathHunter Detection Reagents were prepared according to the protocol provided by DiscoverX and 20 μl/well of this mix were added to each well. After incubating the plates for 1 hour at room temperature in the dark, luminescence signal was acquired with a plate reader. Raw data were normalized to vehicle control (0% for normalization) and positive control (100% for normalization; cells treated with 20 μg/ml collagen II) and IC50 parameters were calculated in GraphPad Prism 8.0 software, using sigmoidal dose-response curve fitting with variable slope.

T1 sequence (Q08345 19-913): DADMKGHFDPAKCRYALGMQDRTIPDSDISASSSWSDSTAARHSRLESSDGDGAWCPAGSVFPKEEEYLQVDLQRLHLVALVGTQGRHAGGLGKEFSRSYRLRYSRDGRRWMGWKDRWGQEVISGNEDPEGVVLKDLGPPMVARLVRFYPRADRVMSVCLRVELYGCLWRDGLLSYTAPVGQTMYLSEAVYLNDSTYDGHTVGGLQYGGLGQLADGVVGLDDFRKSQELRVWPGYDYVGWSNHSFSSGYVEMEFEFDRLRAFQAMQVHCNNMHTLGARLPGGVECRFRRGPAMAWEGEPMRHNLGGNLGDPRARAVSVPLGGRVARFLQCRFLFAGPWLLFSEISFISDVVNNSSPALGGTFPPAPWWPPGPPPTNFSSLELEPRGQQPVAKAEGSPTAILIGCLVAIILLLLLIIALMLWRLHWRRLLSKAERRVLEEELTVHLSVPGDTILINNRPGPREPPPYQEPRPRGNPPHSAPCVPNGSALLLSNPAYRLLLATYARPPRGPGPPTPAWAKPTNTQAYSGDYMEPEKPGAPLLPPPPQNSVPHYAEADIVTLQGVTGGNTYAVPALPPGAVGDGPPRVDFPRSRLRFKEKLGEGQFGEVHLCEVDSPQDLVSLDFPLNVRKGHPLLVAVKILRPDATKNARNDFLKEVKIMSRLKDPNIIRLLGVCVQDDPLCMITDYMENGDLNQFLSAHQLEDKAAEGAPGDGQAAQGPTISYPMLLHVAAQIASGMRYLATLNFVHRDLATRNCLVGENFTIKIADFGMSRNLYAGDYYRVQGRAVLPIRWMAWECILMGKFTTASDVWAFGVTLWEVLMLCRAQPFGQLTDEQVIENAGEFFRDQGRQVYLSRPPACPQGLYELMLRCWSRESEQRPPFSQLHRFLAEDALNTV

Row | SMILES | Ki (DDR1 [1]) [µM] | Ki (DDR2) [µM] | IC50 (DDR1 [2]) [µM]
1 | O=C(Nc1cc(CN2CCOCC2)cc(C(F)(F)F)c1)c1ccc2c(c1)N(Cc1cnc3cnccn13)CC2 [Example 49, 1-(imidazo[1,2-a]pyrazin-3-ylmethyl)-N-(3-(morpholinomethyl)-5-(trifluoromethyl)phenyl)indoline-6-carboxamide] | < 0.025 | < 0.025 | 0.05 to 0.08
2 | CC(C)(c1cc(NC(=O)c2ccc3c(c2)N(Cc2cnc4cnccn24)CC3)no1)C(F)(F)F [Example 45, 1-(imidazo[1,2-a]pyrazin-3-ylmethyl)-N-(5-(1,1,1-trifluoro-2-methylpropan-2-yl)isoxazol-3-yl)indoline-6-carboxamide] | < 0.025 | < 0.025 | 0.025 to 0.05
3 | Cc1cn(-c2cc(NC(=O)c3ccc4c(c3)N(Cc3cnc5ccccn35)CC4C)cc(C(F)(F)F)c2)cn1 (stereo not drawn) [Example 25, 1-(imidazo[1,2-a]pyridin-3-ylmethyl)-3-methyl-N-(3-(4-methyl-1H-imidazol-1-yl)-5-(trifluoromethyl)phenyl)indoline-6-carboxamide] | < 0.025 | 0.025 to 0.05 | 0.025 to 0.05
4 | O=C(Nc1cc(F)cc(C(F)(F)F)c1)c1ccc2c(c1)N(Cc1cnc3cnccn13)CC2 [Example 41, N-(3-fluoro-5-(trifluoromethyl)phenyl)-1-(imidazo[1,2-a]pyrazin-3-ylmethyl)indoline-6-carboxamide] | < 0.025 | < 0.025 | 0.025 to 0.05
5 | Cn1nc(NC(=O)c2ccc3c(c2)N(Cc2cnc4cnccn24)CC3)cc1C(C)(C)C [Example 87, N-(5-(tert-butyl)-1-methyl-1H-pyrazol-3-yl)-1-(imidazo[1,2-a]pyrazin-3-ylmethyl)indoline-6-carboxamide] | < 0.025 | < 0.025 | 0.025 to 0.05
6 | CN1CCN(Cc2ccc(NC(=O)c3ccc4c(c3)N(Cc3cnc5c(c3)CCN5)CC4)cc2C(F)(F)F)CC1 [Example 77, 1-((2,3-dihydro-1H-pyrrolo[2,3-b]pyridin-5-yl)methyl)-N-(4-((4-methylpiperazin-1-yl)methyl)-3-(trifluoromethyl)phenyl)indoline-6-carboxamide] | < 0.025 | 0.025 to 0.05 | < 0.025
7 | CN1CCN(Cc2cc(NC(=O)c3ccc4c(c3)N(Cc3cnc5cnccn35)CC4)cc(C(F)(F)F)c2)CC1 [Example 10, 1-(imidazo[1,2-a]pyrazin-3-ylmethyl)-N-(3-((4-methylpiperazin-1-yl)methyl)-5-(trifluoromethyl)phenyl)indoline-6-carboxamide] | < 0.025 | < 0.025 | 0.025 to 0.05
8 | Cc1cn(-c2cc(NC(=O)c3ccc4c(c3)N(Cc3cnc5[nH]ncc5c3)CC4C)cc(C(F)(F)F)c2)cn1 (stereo not drawn) [Example 24, 1-((1H-pyrazolo[3,4-b]pyridin-5-yl)methyl)-3-methyl-N-(3-(4-methyl-1H-imidazol-1-yl)-5-(trifluoromethyl)phenyl)indoline-6-carboxamide] | 0.025 to 0.05 | 0.025 to 0.05 | < 0.025
9 | CN1CCN(Cc2cc(NC(=O)c3ccc4c(c3)N(C(=O)c3cnc5ccccn35)CC4)cc(C(F)(F)F)c2)CC1 [Example 14, 1-(imidazo[1,2-a]pyridine-3-carbonyl)-N-(3-((4-methylpiperazin-1-yl)methyl)-5-(trifluoromethyl)phenyl)indoline-6-carboxamide] | < 0.025 | < 0.025 | 0.025 to 0.05
10 | CC1CN(Cc2cnc3cnccn23)c2cc(C(=O)Nc3cncc(C(F)(F)F)c3)ccc21 (stereo not drawn) [Example 92, 1-(imidazo[1,2-a]pyrazin-3-ylmethyl)-3-methyl-N-(5-(trifluoromethyl)pyridin-3-yl)indoline-6-carboxamide] | < 0.025 | < 0.025 | 0.025 to 0.05

Results, then the compound that gave them:

Row | Ki (DDR1 [1]) [µM] | Ki (DDR2) [µM] | IC50 (DDR1 [2]) [µM] | SMILES
11 | < 0.025 | < 0.025 | < 0.025 | Cc1n[nH]c2ncc(CN3CCc4ccc(C(=O)Nc5cc(C(=O)N6CCN(C)CC6)cc(C(F)(F)F)c5)cc43)cc12 [Example 74, 1-((3-methyl-1H-pyrazolo[3,4-b]pyridin-5-yl)methyl)-N-(3-(4-methylpiperazine-1-carbonyl)-5-(trifluoromethyl)phenyl)indoline-6-carboxamide]
12 | < 0.025 | < 0.025 | < 0.025 | CC(C)(C)c1cc(NC(=O)c2ccc3c(c2)N(Cc2cnc4[nH]ncc4c2)CC3)on1 [Example 78, 1-((1H-pyrazolo[3,4-b]pyridin-5-yl)methyl)-N-(3-(tert-butyl)isoxazol-5-yl)indoline-6-carboxamide]
13 | < 0.025 | < 0.025 | < 0.025 | Cc1n[nH]c2ncc(CN3CCc4ccc(C(=O)Nc5cc(C(C)(C)C)on5)cc43)cc12 [Example 67, N-(5-(tert-butyl)isoxazol-3-yl)-1-((3-methyl-1H-pyrazolo[3,4-b]pyridin-5-yl)methyl)indoline-6-carboxamide]
14 | < 0.025 | 0.05 to 0.08 | 0.05 to 0.08 | O=C(Nc1cccc(C(F)(F)F)c1)c1ccc2c(c1)N(Cc1ccc3[nH]cnc3c1)CC2 [Example 60, 1-((1H-benzo[d]imidazol-5-yl)methyl)-N-(3-(trifluoromethyl)phenyl)indoline-6-carboxamide]
15 | < 0.025 | < 0.025 | < 0.025 | Cc1n[nH]c2ncc(CN3CCc4ccc(C(=O)Nc5cc(CN6CCN(C)CC6)cc(C(F)(F)F)c5)cc43)cc12 [Example 68, 1-((3-methyl-1H-pyrazolo[3,4-b]pyridin-5-yl)methyl)-N-(3-((4-methylpiperazin-1-yl)methyl)-5-(trifluoromethyl)phenyl)indoline-6-carboxamide]
16 | < 0.025 | < 0.025 | < 0.025 | CN(C)Cc1c[nH]c2ncc(CN3CCc4ccc(C(=O)Nc5cncc(C(F)(F)F)c5)cc43)cc12 [Example 83, 1-((3-((dimethylamino)methyl)-1H-pyrrolo[2,3-b]pyridin-5-yl)methyl)-N-(5-(trifluoromethyl)pyridin-3-yl)indoline-6-carboxamide]
17 | < 0.025 | < 0.025 | < 0.025 | Cc1n[nH]c2ncc(CN3CCc4ccc(C(=O)Nc5cc(CN(C)C)nc(C(F)(F)F)c5)cc43)cc12 [Example 82, N-(2-((dimethylamino)methyl)-6-(trifluoromethyl)pyridin-4-yl)-1-((3-methyl-1H-pyrazolo[3,4-b]pyridin-5-yl)methyl)indoline-6-carboxamide]
18 | < 0.025 | < 0.025 | < 0.025 | Cc1n[nH]c2ncc(CN3CCc4ccc(C(=O)Nc5cc(CN6CCN(C)CC6)nc(C(F)(F)F)c5)cc43)cc12 [Example 81, 1-((3-methyl-1H-pyrazolo[3,4-b]pyridin-5-yl)methyl)-N-(2-((4-methylpiperazin-1-yl)methyl)-6-(trifluoromethyl)pyridin-4-yl)indoline-6-carboxamide]
19 | < 0.025 | < 0.025 | < 0.025 | Cc1n[nH]c2ncc(CN3CCc4ccc(C(=O)Nc5cc(CN6CCCC6)cc(C(F)(F)F)c5)cc43)cc12 [Example 66, 1-((3-methyl-1H-pyrazolo[3,4-b]pyridin-5-yl)methyl)-N-(3-(pyrrolidin-1-ylmethyl)-5-(trifluoromethyl)phenyl)indoline-6-carboxamide]
